Results reported in ChEMBL document CHEMBL4184200, “Benzimidazole design, synthesis, and docking to build selective carbonic anhydrase VA inhibitors” (Bioorg Med Chem, 2018).

assay: physchem

Compound | pKa
NS(=O)(=O)c1cc(C(=O)Cn2cnc3ccccc32)ccc1Cl | 8.8
Cc1nc2ccccc2n1CC(=O)c1ccc(Cl)c(S(N)(=O)=O)c1 | 8.8
CCc1nc2ccccc2n1CC(=O)c1ccc(Cl)c(S(N)(=O)=O)c1 | 8.8
NS(=O)(=O)c1cc(C(=O)CN2CCCc3ccccc32)ccc1Cl | 8.8
NS(=O)(=O)c1cc(C(=O)Cn2ccnc2)ccc1Cl | 8.8
NS(=O)(=O)c1cc(C(=O)Cn2ccnc2-c2ccccc2)ccc1Cl | 8.8
Cc1cc2ncn(CC(=O)c3ccc(Cl)c(S(N)(=O)=O)c3)c2cc1C | 8.8
NS(=O)(=O)c1cc(C(=O)Nn2cnc3ccccc32)c(SC2CCCCC2)cc1Cl | 8.8
NS(=O)(=O)c1cc(C(=O)Cn2cnc3ccccc32)c(Cl)cc1Cl | 8.3
Cc1cc2ncn(CC(=O)c3cc(S(N)(=O)=O)c(Cl)cc3Sc3ccccc3)c2cc1C | 8.8
NS(=O)(=O)c1cc(C(=O)Nn2cnc3ccccc32)c(Cl)cc1Cl | 8.3
CCc1nccn1CC(=O)c1ccc(Cl)c(S(N)(=O)=O)c1 | 8.8
Cc1cc2ncn(CC(=O)c3cc(S(N)(=O)=O)c(Cl)cc3Cl)c2cc1C | 8.3
NS(=O)(=O)c1cc(C(=O)Cn2ccnc2)c(Cl)cc1Cl | 8.3
NS(=O)(=O)c1cc(C(=O)Cn2cnc3ccccc32)c(SCCc2ccccc2)cc1Cl | 8.8
NS(=O)(=O)c1cc(C(=O)CN2CCc3ccccc32)ccc1Cl | 8.8
NS(=O)(=O)c1cc(C(=O)Cn2cnc(-c3ccccc3)c2-c2ccccc2)ccc1Cl | 8.8
NS(=O)(=O)c1cc(C(=O)Nn2cnc3ccccc32)c(Sc2ccccc2)cc1Cl | 8.8
CC1Cc2ccccc2N1NC(=O)c1ccc(Cl)c(S(N)(=O)=O)c1 (centres undefined) [INDAPAMIDE] | 8.8
